Data set [1] has as its target T1, bovine serum albumin (BSA) (Bos taurus, UniProt P02769).
T1 construct: purchased Sigma-Aldrich (MO, USA)
Briefly: Protein precipitation capacity (PPC), turbidimetric well-plate reader assay with BSA, log-normal dose–response model. It is filed as biochemical. The settings on record: SE in parentheses; for ED90 (mM) / EC50: BSA 0.1 mM; for EC50: concentration giving 50% of maximal absorbance (420 nm haze), read-out: ED50 (the source's name); for slope: slope parameter of log-normal dose–response model. As for the experimental part: (§1) PPC was measured by using the turbidimetric well-plate reader assay of Engström et al. (2019), with few modifications to the volumes of the reactants and to the number of replicates, for instance. The analyzes of the supernatants were done following Engström et al. (2022).[21] Briefly, 75 μL of BSA solution and 75 μL of the solutions of compounds 2–14 were pipetted to well plates, and the intensity of the forming haze was measured periodically at 420 nm using a well-plate reader. The PPC of the PC analogue 1 was not measured because it was not soluble in suitable solvents. The reactions were monitored for 30 min, and the highest intensities were recorded. A single background measurement was done at each concentration with all the components in the wells but the BSA. The reactions were done in triplicates (and in duplicates with PC C1), and the concentrations of the compounds 2–14 in the reaction mixtures were 0.25 0.65, 1.05, 1.45, 1.85, and 2.25 mM. The concentration of the BSA was kept constant at 0.1 mM. Therefore, the tested molar ratios to BSA were 2.5:1, 6.5:1, 10.5:1, 14.5:1, 18.5:1, and 22.5:1. After the 30 min, the supernatants and precipitates of the replicates were combined in a 1.5 mL Eppendorf tube and separated by centrifuging. The supernatants were then analyzed by UPLC–DAD using the shorter phenyl column (section 2.4) to quantify the leftover compounds 2–14 and BSA. Leftover BSA was quantified using a separately prepared linear calibration curve (1–125 μM), and the compounds 2–14 were quantified by analyzing the background solutions from the well-plate reader assay and constructing a calibration curve from these analyzes. BSA was quantified at 280 nm and compounds 2–14 at 280–320 nm. The wavelength of maximal UV absorption for compounds 2–14 could not be utilized in quantification because the diode array detector was saturated at the optimal wavelengths due to the high concentrations used in the well-plate reader assay. Therefore, off-optimal wavelengths were chosen for quantification separately for each compound 2–14 to reduce intensities and to obtain linear fits for calibration curves.
All statistical analyzed were performed with R (version 4.2.2) in the integrated development environment Rstudio (version 2022.12.0.353).[23],[24] The PPC data was fitted with a dose–response model using the package drc.[25] Various models, e.g., logit and log-normal models, were compared using the mselect function, and the best fitting model was chosen based on the Akaike’s information criterion and residual error when comparing all models, and log-likelihood was used when comparing nested models. All compounds were assumed to have the same upper and lower asymptotes; the former was estimated from the experimental data, and the latter was fixed at zero.

Data set [2] can be described thus: Octanol–water partition, shake-flask method. It is filed as physicochemical. The settings on record: 200 μM, n-octanol/water, 2 h mixing, SE in parentheses; for logP at 2 h: read-out: log P (log10KOW). The method, then:
The shake-flask method was done using 2 mL Eppendorf tubes and three replicates. […] After mixing, aliquots of 500 μL were transferred to new Eppendorf tubes, and 500 μL of n-octanol was added that had been saturated with water. The solvent systems were mixed in a vortex mixer for 2 h, and then both the water and the n-octanol layers as well as the initial water solution were analyzed by UPLC–DAD using the shorter phenyl column (section 2.4). The chromatograms were integrated using TargetLynx software (version 4.2), and the octanol–water partition coefficient, log P, was calculated as the log10 of the ratio of area in n-octanol phase to the area in water phase. Recovery % was calculated by summing the areas in both phases and dividing the summation with the area measured from the initial water phase.

The nature of data set [3]: Stability in phosphate buffered saline. Type of data set: physicochemical. The settings on record: for half-life at 150 μM: phosphate buffered saline, read-out: half-life (t1/2); for half-life at 150 μM / half-life (t1/2): first-order kinetics, UV 280 nm, 150 μM; for starting material remaining (in words): after 26 h incubation in PBS; for stability in phosphate buffered saline (in words): first time point, approx. 15 min after adding PBS. As for the experimental part:
The stabilities of the compounds were measured in PBS, which was prepared from commercially available tablets that were dissolved in ultrapure water. The phosphate concentration was 0.01 M, the pH was 7.4, and the potassium and sodium chloride concentrations were 0.0027 and 0.137 M, respectively. […] The compounds were dissolved in 2 mL of the PBS solution in Eppendorf tubes, vortexed for approximately 15 min, and filtered through a 0.2 μm PTFE filter to a 2 mL UPLC vial. The solutions were analyzed with the UPLC-DAD-HESI-Orbitrap-MS instrument using the longer phenyl column (section 2.4), and repeated injections were done every 47.5 min for approximately 12 h. […] The UV chromatograms at 280 nm were integrated using the QuanBrowser module in Xcalibur software (version 4.1.31.9), and the main degradation products were identified in QualBrowser by their high-resolution mass spectra and UV spectra. With each compound, the measured areas were transformed to proportional areas by dividing all areas with the initial area in the first injection of the time series, and the data was further loge transformed and fitted with first-order linear regression curves. The regression curves were supplemented with 95% confidence intervals to visualize the uncertainty in the fitted curves. The half-lives were calculated from the slope (k) parameters of the linear regression model using the following equation: [drawing 1]

For data set [4], the target named is T1, bovine serum albumin (BSA). Briefly: UPLC–DAD analysis of supernatants from the PPC experiment (proportion of precipitated BSA). It is filed as biochemical. As for the experimental part:
as §1

Data set [5] in a line: Octanol–water partition, shake-flask method. Type of data set: physicochemical. The conditions noted are these: for logP / KOW: tentative values, experiment shorter than two hours because the compounds degraded; for logP: read-out: log P (log10KOW).
The mark [6] stands for this setting: pH 7.4, PBS pH 7.4, 0.01 M phosphate.

Each structure is given as a SMILES string. Read-outs that look alike come from different tables or passages of the source.

T1 sequence (P02769 25-607): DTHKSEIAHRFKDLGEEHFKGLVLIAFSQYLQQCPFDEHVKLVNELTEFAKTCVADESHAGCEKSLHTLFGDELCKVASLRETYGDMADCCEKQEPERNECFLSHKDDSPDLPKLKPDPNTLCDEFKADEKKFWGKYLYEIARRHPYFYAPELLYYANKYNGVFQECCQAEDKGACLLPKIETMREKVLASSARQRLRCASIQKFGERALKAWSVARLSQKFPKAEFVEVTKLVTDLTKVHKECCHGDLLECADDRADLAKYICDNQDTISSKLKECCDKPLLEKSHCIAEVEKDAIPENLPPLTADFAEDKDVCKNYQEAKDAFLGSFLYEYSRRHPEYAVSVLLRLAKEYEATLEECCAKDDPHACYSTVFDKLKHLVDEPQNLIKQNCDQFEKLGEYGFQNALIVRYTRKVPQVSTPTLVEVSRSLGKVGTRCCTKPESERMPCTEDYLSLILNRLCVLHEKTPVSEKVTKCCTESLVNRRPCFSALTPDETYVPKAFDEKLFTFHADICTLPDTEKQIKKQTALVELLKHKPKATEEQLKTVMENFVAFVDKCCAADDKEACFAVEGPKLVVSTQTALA

In the case of `Oc1ccc([C@H]2Oc3c(c(O)cc(O)c3C(c3ccco3)c3c(O)cc(O)c4c3O[C@H](c3ccc(O)c(O)c3)[C@H](O)C4)C[C@H]2O)cc1O` [Compound 6, Epicatechin–furanmethine–epicatechin], in data set [1], the “ED90 (mM)” value is given as 3.32 (0.09) mM, the EC50 was 1.83 mM and the slope is given as 2.15 (0.08). In addition, in data set [2], the KOW is on record as 2.08 (0.00) and the logP at 2 h is 0.32. In data set [3] (setting [6]), the half-life at 150 μM was 349 min.

Consider `O=C(O)C(c1c(O)cc(O)c2c1O[C@H](c1ccc(O)c(O)c1)[C@H](O)C2)c1c(O)cc(O)c2c1O[C@H](c1ccc(O)c(O)c1)[C@H](O)C2` [Compound 4, Epicatechin–carboxymethine–epicatechin], for which, in data set [1], the “ED90 (mM)” value was 3.30 (0.08) mM, the EC50 was determined as 2.03 mM and the slope is 2.64 (0.11). In addition, in data set [2], the KOW is 0.02 (0.00) and the logP at 2 h is -1.78. For the same compound, the half-life at 150 μM in data set [3] (setting [6]) was 420 min.

In the case of `Oc1ccc([C@H]2Oc3c(Cc4c(O)cc(O)c5c4O[C@H](c4ccc(O)c(O)c4)[C@@H](O)C5)c(O)cc(O)c3C[C@@H]2O)cc1O` [Compound 1], in data set [2], the KOW was 5.00 (0.05) and the logP at 2 h was found to be 0.7. Moreover, the half-life at 150 μM in data set [3] (setting [6]) was determined as 207 min.

With `Oc1ccc([C@H]2Oc3c(c(O)cc(O)c3C(c3ccco3)c3c(O)cc(O)c4c3O[C@H](c3ccc(O)c(O)c3)[C@@H](O)C4)C[C@@H]2O)cc1O` [Compound 5, Catechin–furanmethine–catechin], in data set [1], the “ED90 (mM)” value is reported as 2.58 (0.06) mM, the EC50 worked out at 1.39 mM and the slope is 2.08 (0.07). For the same compound, in data set [2], the KOW was 5.28 (0.02) and the logP at 2 h stood at 0.72. For the same compound, the half-life at 150 μM in data set [3] (setting [6]) came out at 531 min.

Turning to `O=C(O)C(c1c(O)cc(O)c2c1O[C@H](c1ccc(O)c(O)c1)[C@@H](O)C2)c1c(O)cc(O)c2c1O[C@H](c1ccc(O)c(O)c1)[C@@H](O)C2` [Compound 3], in data set [1], the “ED90 (mM)” value is listed as 3.34 (0.09) mM, the EC50 stood at 2.03 mM and the slope was 2.57 (0.10). Moreover, in data set [2], the KOW is recorded as 0.04 (0.00) and the logP at 2 h was -1.37. For the same compound, the half-life at 150 μM in data set [3] (setting [6]) was found to be 376 min.

Turning to `Oc1ccc(C(c2c(O)cc(O)c3c2O[C@H](c2ccc(O)c(O)c2)[C@@H](O)C3)c2c(O)cc(O)c3c2O[C@H](c2ccc(O)c(O)c2)[C@@H](O)C3)cc1O` [Compound 7, Catechin–catecholmethine–catechin], in data set [1], the “ED90 (mM)” value is recorded as 2.53 (0.07) mM, the EC50 stood at 1.29 mM and the slope is 1.90 (0.06). Moreover, in data set [2], the KOW is recorded as 0.79 (0.00) and the logP at 2 h is -0.1. In data set [3] (PBS pH 7.4, 0.01 M phosphate), the “half-life (t1/2)” value is 55 to 84 min. Also, in data set [3] (setting [6]), the half-life at 150 μM amounted to 55 min.

On to `Oc1cc(O)c2c(c1)O[C@H](c1ccc(O)c(O)c1)[C@@H](O)[C@@H]2c1c(O)cc(O)c2c1O[C@H](c1ccc(O)c(O)c1)[C@@H](O)C2` [Compound 11, PC B3, reference compound], for which, in data set [2], the KOW was 0.16 (0.00) and the logP at 2 h is -0.79. For the same compound, the half-life at 150 μM in data set [3] (setting [6]) came to 539 min. In addition, the “activity based on the proportions of precipitated BSA (in words)” value in data set [4] is “practically inactive”.

Regarding `Oc1cc(O)c2c(c1)O[C@H](c1ccc(O)c(O)c1)[C@H](O)C2` [Compound 16, epicatechin, reference compound], the “starting material remaining (in words)” value in data set [3] is listed as “majority of the starting materials remained”. Further, the half-life at 150 μM in data set [3] (PBS pH 7.4, 0.01 M phosphate) stood at 899 min.

For the compound `Oc1ccc([C@H]2Oc3c(Cc4c(O)cc(O)c5c4O[C@H](c4ccc(O)c(O)c4)[C@H](O)C5)c(O)cc(O)c3C[C@H]2O)cc1O` [Compound 2, Epicatechin–methylene–epicatechin], in data set [1], the “ED90 (mM)” value is 3.45 (0.10) mM, the EC50 came to 2.18 mM and the slope is 2.80 (0.13). In data set [2], the KOW was 1.46 (0.01) and the logP at 2 h came out at 0.16. Further, in data set [3] (setting [6]), the half-life at 150 μM worked out at 123 min.

Turning to `Oc1ccc([C@H]2Oc3c(c(O)cc(O)c3C(c3cc(O)c(O)c(O)c3)c3c(O)cc(O)c4c3O[C@H](c3ccc(O)c(O)c3)[C@@H](O)C4)C[C@@H]2O)cc1O` [Compound 9], in data set [1], the “ED90 (mM)” value is reported as 2.61 (0.06) mM, the EC50 turned out to be 1.4 mM and the slope is listed as 2.04 (0.06). For the same compound, the “stability in phosphate buffered saline (in words)” value in data set [3] is given as “completely degraded already at the first time point”. Besides, the half-life at 150 μM in data set [3] (setting [6]) is less than 15 min. The logP in data set [5] (n-octanol/water) was -0.85. For the same compound, the KOW in data set [5] is 0.14 (0.01).

Turning to `Oc1ccc([C@H]2Oc3c(c(O)cc(O)c3C(c3cc(O)c(O)c(O)c3)c3c(O)cc(O)c4c3O[C@H](c3ccc(O)c(O)c3)[C@H](O)C4)C[C@H]2O)cc1O` [Compound 10], in data set [1], the “ED90 (mM)” value is listed as 2.41 (0.05) mM, the EC50 came to 1.44 mM and the slope is listed as 2.48 (0.08). The “stability in phosphate buffered saline (in words)” value in data set [3] is recorded as “completely degraded already at the first time point”. Besides, the half-life at 150 μM in data set [3] (setting [6]) is less than 15 min. The logP in data set [5] (n-octanol/water) is -1.18. Further, the KOW in data set [5] was 0.07 (0.00).

Turning to `Oc1cc(O)c2c(c1)O[C@H](c1ccc(O)c(O)c1)[C@@H](O)C2` [Compound 15, catechin, reference compound], the KOW in data set [2] was 2.61 (0.03). In addition, the “starting material remaining (in words)” value in data set [3] was “majority of the starting materials remained”. Further, the half-life at 150 μM in data set [3] (PBS pH 7.4, 0.01 M phosphate) came to 1340 min. Moreover, in data set [5] (200 μM, n-octanol/water, 2 h mixing, SE in parentheses), the “log P (log10KOW)” value is reported as 0.42 (0.00).

As for `Oc1ccc(C(c2c(O)cc(O)c3c2O[C@H](c2ccc(O)c(O)c2)[C@H](O)C3)c2c(O)cc(O)c3c2O[C@H](c2ccc(O)c(O)c2)[C@H](O)C3)cc1O` [Compound 8, Epicatechin–catecholmethine–epicatechin], in data set [1], the “ED90 (mM)” value is reported as 2.61 (0.06) mM, the EC50 was 1.5 mM and the slope was 2.30 (0.08). Besides, in data set [2], the KOW is reported as 0.34 (0.00) and the logP at 2 h was -0.47. In data set [3] (PBS pH 7.4, 0.01 M phosphate), the “half-life (t1/2)” value fell in the range of 55 to 84 min. Further, in data set [3] (setting [6]), the half-life at 150 μM came out at 84 min.

Values taken from PMC10722540, “Red Wine Inspired Chemistry: Hemisynthesis of Procyanidin Analogs and Determination of Their Protein Precipitation Capacity, Octanol–Water Partition, and Stability in Phosphate-Buffered Saline” (Journal of Agricultural and Food Chemistry, 2023).
